Measured values taken from patent US9328099B2, “Cyanomethylpyrazole carboxamides as janus kinase inhibitors” (Merck Sharp & Dohme Corp., priority 2011, dated 2016).

What was measured:
[1] = biological target: JAK2 (Homo sapiens (Human), UniProt O60674); experiment: Jak Biochemical HTRF Assay, JAK2; details: HTRF biochemical assay, GST-tagged catalytic domain; top concentration tested […]
Excerpt: (§1) Jak Biochemical HTRF Assay Protocol
(§2) Subsequent reagent additions employed an Agilent Bravo.

[2] = biological target: JAK1 (Homo sapiens (Human), UniProt P23458); experiment: Jak Biochemical HTRF Assay, JAK1; details: HTRF biochemical assay, GST-tagged catalytic domain; top concentration tested […]; read-out: JAK1 IC50
Excerpt: as §1, §2

Sequence of JAK2 (O60674 849-1124): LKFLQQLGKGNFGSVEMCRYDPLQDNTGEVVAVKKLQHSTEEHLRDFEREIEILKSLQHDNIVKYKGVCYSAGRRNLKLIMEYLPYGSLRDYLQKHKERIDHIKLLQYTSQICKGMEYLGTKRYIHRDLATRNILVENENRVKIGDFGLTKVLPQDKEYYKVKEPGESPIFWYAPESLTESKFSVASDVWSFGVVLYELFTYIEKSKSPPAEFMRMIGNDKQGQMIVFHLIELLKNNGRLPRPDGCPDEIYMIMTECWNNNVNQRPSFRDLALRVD
Sequence of JAK1 (P23458 875-1153): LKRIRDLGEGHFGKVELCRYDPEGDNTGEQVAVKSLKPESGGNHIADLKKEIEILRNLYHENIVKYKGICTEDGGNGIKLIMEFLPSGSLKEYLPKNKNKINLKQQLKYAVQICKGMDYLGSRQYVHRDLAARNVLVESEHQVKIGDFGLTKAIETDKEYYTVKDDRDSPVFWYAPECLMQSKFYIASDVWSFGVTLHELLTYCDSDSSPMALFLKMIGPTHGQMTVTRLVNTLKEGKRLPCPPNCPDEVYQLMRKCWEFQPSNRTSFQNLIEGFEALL

Structure (SMILES)	IC50 [1]	IC50 [2]
N#CCC1(n2cc(C(N)=O)c(Nc3ccc(F)cc3)n2)CCN(Cc2ccco2)CC1 [Example 22-54, 1-[4-(cyanomethyl)-1-(furan-2-ylmethyl)piperidin-4-yl]-3-[(4-fluorophenyl)amino]-1H-pyrazole-4-carboxamide]	28 nM	1 nM
N#CCC1(n2cc(C(N)=O)c(Nc3ccc(F)cc3)n2)CCN(Cc2ccc3[nH]ccc3c2)CC1 [Example 22-55, 1-[4-(cyanomethyl)-1-(1H-indol-5-ylmethyl)piperidin-4-yl]-3-[(4-fluorophenyl)amino]-1H-pyrazole-4-carboxamide]	53 nM	4 nM
N#CCC1(n2cc(C(N)=O)c(Nc3ccc(F)cc3)n2)CCN(Cc2ccc3cc[nH]c3c2)CC1 [Example 22-56, 1-[4-(cyanomethyl)-1-(1H-indol-6-ylmethyl)piperidin-4-yl]-3-[(4-fluorophenyl)amino]-1H-pyrazole-4-carboxamide]	46 nM	2 nM
N#CCC1(n2cc(C(N)=O)c(Nc3ccc(F)cc3)n2)CCN(Cc2cccc3[nH]ccc23)CC1 [Example 22-57, 1-[4-(cyanomethyl)-1-(1H-indol-4-ylmethyl)piperidin-4-yl]-3-[(4-fluorophenyl)amino]-1H-pyrazole-4-carboxamide]	280 nM	14 nM
N#CCC1(n2cc(C(N)=O)c(Nc3ccc(F)cc3)n2)CCN(Cc2cccc3cc[nH]c23)CC1 [Example 22-58, 1-[4-(cyanomethyl)-1-(1H-indol-7-ylmethyl)piperidin-4-yl]-3-[(4-fluorophenyl)amino]-1H-pyrazole-4-carboxamide]	128 nM	4 nM
N#CCC1(n2cc(C(N)=O)c(Nc3ccnc(F)c3)n2)CCN(Cc2ccc(O)cc2)CC1 [Example 22-60, 1-[4-(cyanomethyl)-1-(4-hydroxybenzyl)piperidin-4-yl]-3-[(2-fluoropyridin-4-yl)amino]-1H-pyrazole-4-carboxamide]	6 nM	0.1 nM
N#CCC1(n2cc(C(N)=O)c(Nc3ccnc(F)c3)n2)CCN(Cc2cccc(Cl)c2)CC1 [Example 22-61, 1-[1-(3-chlorobenzyl)-4-(cyanomethyl)piperidin-4-yl]-3-[(2-fluoropyridin-4-yl)amino]-1H-pyrazole-4-carboxamide]	10 nM	0.4 nM
N#CCC1(n2cc(C(N)=O)c(Nc3ccnc(F)c3)n2)CCN(Cc2cccc(C#N)c2)CC1 [Example 22-62, 1-[1-(3-cyanobenzyl)-4-(cyanomethyl)piperidin-4-yl]-3-[(2-fluoropyridin-4-yl)amino]-1H-pyrazole-4-carboxamide]	33 nM	0.9 nM
COc1cccc(CN2CCC(CC#N)(n3cc(C(N)=O)c(Nc4ccnc(F)c4)n3)CC2)c1 [Example 22-63, 1-[4-(cyanomethyl)-1-(3-methoxybenzyl)piperidin-4-yl]-3-[(2-fluoropyridin-4-yl)amino]-1H-pyrazole-4-carboxamide]	20 nM	0.5 nM
N#CCC1(n2cc(C(N)=O)c(Nc3ccnc(F)c3)n2)CCN(Cc2ccc(Cl)cc2)CC1 [Example 22-71, 1-[1-(4-chlorobenzyl)-4-(cyanomethyl)piperidin-4-yl]-3-[(2-fluoropyridin-4-yl)amino]-1H-pyrazole-4-carboxamide]	4 nM	0.1 nM
N#CCC1(n2cc(C(N)=O)c(Nc3ccc(F)cc3)n2)CCN(CCF)CC1 [Example 24-1, 1-(4-(Cyanomethyl)-1-(2-fluoroethyl)piperidin-4-yl)-3-((4-fluorophenyl)amino)-1H-pyrazole-4-carboxamide]	59 nM	10 nM
N#CCC1(n2cc(C(N)=O)c(Nc3ccc(F)cc3)n2)CCN(c2ccccn2)CC1 [Example 25, 1-(4-(Cyanomethyl)-1-(pyridin-2-yl)piperidin-4-yl)-3-(4-fluorophenylamino)-1H-pyrazole-4-carboxamide]	2 nM	0.08 nM
COC(=O)N1CCC(CC#N)(n2cc(C(N)=O)c(Nc3ccc(S(=O)(=O)C(F)(F)F)cc3)n2)CC1 [Example 27-1, Methyl 4-(4-carbamoyl-3-(4-(trifluoromethylsulfonyl)phenylamino)-1H-pyrazol-1-yl)-4-(cyanomethyl)piperidine-1-carboxylate]	2 nM	0.3 nM
COCCOC(=O)N1CCC(CC#N)(n2cc(C(N)=O)c(Nc3ccc(S(=O)(=O)C(F)(F)F)cc3)n2)CC1 [Example 27-2, 2-methoxyethyl 4-(4-carbamoyl-3-(4-(trifluoromethylsulfonyl)phenylamino)-1H-pyrazol-1-yl)-4-(cyanomethyl)piperidine-1-carboxylate]	6 nM	0.3 nM
COC(=O)N1CCC(CC#N)(n2cc(C(N)=O)c(Nc3ccc(S(C)(=O)=O)cc3)n2)CC1 [Example 27-3, methyl 4-(4-carbamoyl-3-{[4-(methylsulfonyl)phenyl]amino}-1H-pyrazol-1-yl)-4-(cyanomethyl)piperidine-1-carboxylate]	16 nM	1 nM
CC(C)(CO)OC(=O)N1CCC(CC#N)(n2cc(C(N)=O)c(Nc3ccc(F)cc3)n2)CC1 [Example 29, 1-Hydroxy-2-methylpropan-2-yl 4-{4-carbamoyl-3-[(4-fluorophenyl)amino]-1H-pyrazol-1-yl}-4-(cyanomethyl)piperidine-1-carboxylate]	96 nM	2 nM

The remaining lines, values ahead:

IC50 [1]	IC50 [2]	Structure (SMILES)
7 nM	0.2 nM	N#CCC1(n2cc(C(N)=O)c(Nc3ccnc(F)c3)n2)CCN(Cc2ccccc2Cl)CC1 [Example 22-59, 1-[1-(2-chlorobenzyl)-4-(cyanomethyl)piperidin-4-yl]-3-[(2-fluoropyridin-4-yl)amino]-1H-pyrazole-4-carboxamide]
16 nM	1 nM	COc1ccc(CN2CCC(CC#N)(n3cc(C(N)=O)c(Nc4ccnc(F)c4)n3)CC2)cc1 [Example 22-65, 1-[4-(cyanomethyl)-1-(4-methoxybenzyl)piperidin-4-yl]-3-[(2-fluoropyridin-4-yl)amino]-1H-pyrazole-4-carboxamide]
68 nM	1 nM	N#CCC1(n2cc(C(N)=O)c(Nc3ccnc(F)c3)n2)CCN(Cc2cccc(=O)[nH]2)CC1 [Example 22-67, 1-{4-(cyanomethyl)-1-[(6-oxo-1,6-dihydropyridin-2-yl)methyl]piperidin-4-yl}-3-[(2-fluoropyridin-4-yl)amino]-1H-pyrazole-4-carboxamide]
9 nM	0.2 nM	N#CCC1(n2cc(C(N)=O)c(Nc3ccnc(F)c3)n2)CCN(Cc2ccc(C#N)cc2)CC1 [Example 22-69, 1-[1-(4-cyanobenzyl)-4-(cyanomethyl)piperidin-4-yl]-3-[(2-fluoropyridin-4-yl)amino]-1H-pyrazole-4-carboxamide]
1 nM	0.04 nM	N#CCC1(n2cc(C(N)=O)c(Nc3ccnc(F)c3)n2)CCN(Cc2cccc(O)c2)CC1 [Example 22-70, 1-[4-(cyanomethyl)-1-(3-hydroxybenzyl)piperidin-4-yl]-3-[(2-fluoropyridin-4-yl)amino]-1H-pyrazole-4-carboxamide]
13 nM	0.3 nM	N#CCC1(n2cc(C(N)=O)c(Nc3ccnc(F)c3)n2)CCN(Cc2ccccc2C#N)CC1 [Example 22-72, 1-[1-(2-cyanobenzyl)-4-(cyanomethyl)piperidin-4-yl]-3-[(2-fluoropyridin-4-yl)amino]-1H-pyrazole-4-carboxamide]
105 nM	4 nM	CC(c1ccccc1)N1CCC(CC#N)(n2cc(C(N)=O)c(Nc3ccc(F)cc3)n2)CC1 (stereo not drawn) [Example 23, 1-(4-(Cyanomethyl)-1-(1-phenylethyl)piperidin-4-yl)-3-((4-fluorophenyl)amino)-1H-pyrazole-4-carboxamide]
917 nM	41 nM	N#CCC1(n2cc(C(N)=O)c(Nc3ccc(F)cc3)n2)CCN(CC2CC2)CC1 [Example 24-2, 1-[4-(cyanomethyl)-1-(cyclopropylmethyl)piperidin-4-yl]-3-[(4-fluorophenyl)amino]-1H-pyrazole-4-carboxamide]
5 nM	0.4 nM	N#CCC1(n2cc(C(N)=O)c(Nc3ccc(F)cc3)n2)CCN(c2ccncn2)CC1 [Example 26, 1-[4-(Cyanomethyl)-1-pyrimidin-4-ylpiperidin-4-yl]-3-[(4-fluorophenyl)amino]-1H-pyrazole-4-carboxamide]
85 nM	3 nM	N#CCC1(n2cc(C(N)=O)c(Nc3ccccc3)n2)CCN(C(=O)OCc2ccccc2)CC1 [Example 27-4, benzyl 4-[4-carbamoyl-3-(phenylamino)-1H-pyrazol-1-yl]-4-(cyanomethyl)piperidine-1-carboxylate]
235 nM	50 nM	COC(=O)N1CCC(CC#N)(n2cc(C(N)=O)c(Nc3ccccc3)n2)CC1 [Example 27-5, methyl 4-[4-carbamoyl-3-(phenylamino)-1H-pyrazol-1-yl]-4-(cyanomethyl)piperidine-1-carboxylate]
74 nM	4 nM	COCC(C)(C)OC(=O)N1CCC(CC#N)(n2cc(C(N)=O)c(Nc3ccc(F)cc3)n2)CC1 [Example 28, 2-Methoxy-1,1-dimethylethyl 4-{4-carbamoyl-3-[(4-fluorophenyl)amino]-1H-pyrazol-1-yl}-4-(cyanomethyl)piperidine-1-carboxylate]
8 nM	0.2 nM	N#CCC1(n2cc(C(N)=O)c(Nc3ccnc(F)c3)n2)CCN(C(=O)OCC(F)(F)F)CC1 [Example 30-1, 2,2,2-Trifluoroethyl 4-{4-carbamoyl-3-[(2-fluoropyridin-4-yl)amino]-1H-pyrazol-1-yl}-4-(cyanomethyl)piperidine-1-carboxylate]
15 nM	0.3 nM	N#CCC1(n2cc(C(N)=O)c(Nc3ccc(F)cc3)n2)CCN(C(=O)OCC(F)(F)F)CC1 [Example 30-2, 2,2,2-trifluoroethyl 4-(4-carbamoyl-3-(4-fluorophenylamino)-1H-pyrazol-1-yl)-4-(cyanomethyl)piperidine-1-carboxylate]
